Among the data in DBAASP are MIC values, retold here.

For orientation: MIC means the lowest concentration found to suppress growth. High values mean a need for much substance, low ones inhibition by little substance.

Values after ≈ are worked out from the molar mass of the structure shown.

Among the test systems are Bacillus megaterium; Klebsiella pneumoniae; Shigella dysenteriae; Candida glabrata 090902; Escherichia coli 44102; Bacillus subtilis A47.
What all share (experiment): ≥ marks a high value that may be exact or a test limit, other limits are often not marked, values filed in µg/mL are converted to µM
Experiment [1] deals with Candida albicans FRR 5580.
Experiment [2] has as its system Pseudomonas aeruginosa ATCC 9027.
The test system of experiment [3] is Pseudomonas aeruginosa ATCC 27853.
Experiment [4] deals with Staphylococcus aureus ATCC 29313.
For experiment [5], the system named is Xanthomonas axonopodis pv. glycines ISBF 327.
For experiment [6], the system named is Escherichia coli ATCC 25922.
Experiment [7] relates to Pseudomonas aeruginosa CMCCB 10104.
In experiment [8] the test system is Candida albicans ATCC 2002.
The subject of experiment [9] is Staphylococcus aureus ATCC 2592.
Experiment [10] deals with Pseudomonas aeruginosa CGMCC 1.50.
For experiment [11], the system named is Enterococcus faecium 091299.
The subject of experiment [12] is Nocardia asteroides 201118.
Experiment [13] deals with Enterobacter cloacae CGMCC 1.57.
The subject of experiment [14] is Enterococcus faecalis 981.
In experiment [15] the test system is Psychrobacter faecalis X29.
The subject of experiment [16] is Klebsiella pneumoniae 08040724.
The subject of experiment [17] is Pseudomonas aeruginosa A62.
In experiment [18] the test system is Staphylococcus aureus 22401.
Experiment [19] concerns Porphyromonas gingivalis ATCC 53978.
For experiment [20], the system named is Porphyromonas gingivalis ATCC 33277.
The subject of experiment [21] is Staphylococcus aureus 68 HER 1049.
Experiment [22] has as its system Escherichia coli K12 MG1655.

Regarding `CC(C)[C@H](NC(=O)[C@@H]1CCCN1C(=O)[C@@H](N)Cc1ccccc1)C(=O)N[C@H](C(=O)N[C@@H](Cc1c[nH]c2ccccc12)C(=O)N[C@@H](CCCN=C(N)N)C(=O)N[C@@H](Cc1c[nH]c2ccccc12)C(=O)N[C@@H](Cc1c[nH]c2ccccc12)C(=O)N[C@@H](CCCCN)C(=O)N[C@@H](Cc1c[nH]c2ccccc12)C(=O)N[C@@H](Cc1c[nH]c2ccccc12)C(=O)N[C@@H](CCCCN)C(=O)NCC(=O)O)[C@@H](C)O` [FPVTWRWWKWWKG], the minimal inhibitory concentration (MIC) in experiment [1] was at least 134 µM; in experiment [2] it was 67.1 µM (≈ 125 µg/mL).

For `CC[C@H](C)[C@H](NC(=O)CN)C(=O)NCC(=O)N[C@@H](CC(=O)O)C(=O)N[C@H](C(=O)N[C@@H](CC(C)C)C(=O)N[C@@H](CCCCN)C(=O)N[C@@H](CC(N)=O)C(=O)N[C@@H](CC(C)C)C(=O)N[C@@H](C)C(=O)N[C@@H](CCCCN)C(=O)N[C@@H](C)C(=O)N[C@@H](C)C(=O)NCC(=O)N[C@@H](CCCCN)C(=O)N[C@@H](C)C(=O)N[C@@H](C)C(=O)N[C@@H](CC(C)C)C(=O)N[C@@H](Cc1cnc[nH]1)C(=O)N[C@@H](C)C(=O)N[C@H](C(=O)NCC(=O)N[C@@H](CCC(=O)O)C(=O)N[C@@H](CO)C(=O)N[C@@H](CC(C)C)C(N)=O)C(C)C)[C@@H](C)CC` [GIGDILKNLAKAAGKAALHAVGESL], the MIC is 77 µM (≈ 186 µg/mL) in [3], 19 µM (≈ 45.9 µg/mL) in [4], 2 µM (≈ 4.83 µg/mL) in experiment [5] and 19 µM (≈ 45.9 µg/mL) in experiment [6].

Turning to `CC[C@H](C)[C@H](NC(=O)CN)C(=O)NCC(=O)N[C@H](C(=O)N[C@@H](CCCCN)C(=O)N[C@H](C(=O)N[C@@H](CC(C)C)C(=O)NCC(=O)NCC(=O)N[C@H](C(=O)N[C@@H](CCCCN)C(=O)N[C@H](C(=O)N[C@@H](C)C(=O)N[C@@H](CC(C)C)C(=O)N[C@@H](CCCCN)C(=O)NCC(=O)N[C@@H](C)C(=O)N[C@@H](CC(C)C)C(=O)N[C@@H](CCCCN)C(=O)N[C@@H](CCC(=O)O)C(=O)N[C@@H](CC(C)C)C(=O)N[C@@H](C)C(=O)N[C@@H](CO)C(=O)N[C@H](C(=O)N[C@@H](Cc1ccc(O)cc1)C(=O)N[C@H](C(=O)N[C@@H](CC(N)=O)C(N)=O)C(C)C)[C@@H](C)O)[C@@H](C)O)C(C)C)[C@@H](C)CC)[C@@H](C)O` [GIGTKILGGVKTALKGALKELASTYVN], the MIC turned out to be 7.21 µM (≈ 19.5 µg/mL) in [7]; 7.21 µM (≈ 19.5 µg/mL) in the experiment on Bacillus megaterium; 3.33 µM (≈ 9 µg/mL) against Klebsiella pneumoniae; 1.11 µM (≈ 3 µg/mL) in experiment [8]; 0.999 µM (≈ 2.7 µg/mL) against Shigella dysenteriae; 7.21 µM (≈ 19.5 µg/mL) in experiment [6]. Also, the MIC in experiment [9] is 7.21 µM (≈ 19.5 µg/mL).

As to `CC[C@H](C)[C@H](NC(=O)CN)C(=O)N[C@@H](CC(C)C)C(=O)N[C@@H](CC(=O)O)C(=O)N[C@H](C(=O)N[C@@H](CC(C)C)C(=O)N[C@@H](CCCCN)C(=O)N[C@@H](CCC(N)=O)C(=O)N[C@@H](CC(C)C)C(=O)NCC(=O)N[C@@H](CCCCN)C(=O)N[C@@H](C)C(=O)N[C@@H](C)C(=O)N[C@@H](C)C(=O)N[C@@H](CCC(N)=O)C(=O)N[C@@H](CO)C(=O)N[C@@H](CC(C)C)C(=O)N[C@@H](CC(C)C)C(=O)N[C@@H](CO)C(=O)N[C@@H](CCCCN)C(=O)N[C@@H](C)C(=O)N[C@@H](C)C(=O)N[C@H]1CSSC[C@@H](C(=O)O)NC(=O)[C@H]([C@@H](C)O)NC(=O)[C@H](CCCCN)NC(=O)[C@H](C)NC(=O)[C@H](CC(C)C)NC(=O)[C@H](CCCCN)NC1=O)[C@@H](C)O` [GILDTLKQLGKAAAQSLLSKAACKLAKTC], the MIC in [10] is at least 50 µM; in experiment [11], 6.3 µM (≈ 18.5 µg/mL); against Candida glabrata 090902, at least 50 µM; in experiment [12] it was 6.3 µM (≈ 18.5 µg/mL); in experiment [13], at least 50 µM; in [14], at least 50 µM. The MIC in experiment [15] is 3.1 µM (≈ 9.13 µg/mL); in [16] it was at least 100 µM; in [6], 50 µM (≈ 147 µg/mL).

For the compound `CC[C@H](C)[C@H](N)C(=O)N[C@@H](CC(C)C)C(=O)N1CCC[C@H]1C(=O)N[C@H](C(=O)N[C@H](C(=O)NCC(=O)N[C@@H](CCCCN)C(=O)N[C@H](C(=O)N[C@@H](CC(C)C)C(=O)N[C@@H](CO)C(=O)N[C@H](C(=O)N[C@H](C(=O)N[C@@H](Cc1ccccc1)C(=O)NCC(=O)N[C@@H](CCCCN)C(=O)O)[C@@H](C)CC)[C@@H](C)O)[C@@H](C)CC)[C@@H](C)CC)[C@@H](C)CC` [ILPIIGKILSTIFGK], the MIC in the experiment with Escherichia coli 44102 was at least 50 µM; in experiment [17], 12.5 µM (≈ 20.2 µg/mL); in the experiment on Bacillus subtilis A47 it was 25 µM (≈ 40.3 µg/mL); in experiment [18], 6.25 µM (≈ 10.1 µg/mL).

For the compound `CC[C@H](C)[C@H](NC(=O)CNC(=O)[C@H](CCC(=O)O)NC(=O)CNC(=O)[C@H](C)NC(=O)CNC(=O)[C@H](Cc1cnc[nH]1)NC(=O)[C@@H]1CCCN1C(=O)[C@@H](N)CCCN=C(N)N)C(=O)N[C@@H](CC(=O)O)C(=O)N[C@@H](CCCN=C(N)N)C(=O)N[C@H](C(=O)N1CCC[C@H]1C(=O)N[C@@H](C)C(=O)NCC(=O)N1CCC[C@H]1C(=O)N[C@@H](CO)C(=O)N1CCC[C@H]1C(=O)N[C@@H](CO)C(=O)N[C@@H](CCC(=O)O)C(=O)N[C@H](C(=O)NCC(=O)N[C@@H](CC(C)C)C(=O)N[C@@H](C)C(=O)N[C@H](C(=O)N1CCC[C@H]1C(=O)N[C@@H](CO)C(=O)NCC(=O)N[C@@H](CCCCN)C(=O)O)[C@@H](C)CC)C(C)C)C(C)C` [RPHGAGEGIDRVPAGPSPSEVGLAIPSGK], the minimum inhibitory concentration (MIC) in [19] and in experiment [20] was 1.7 µM (≈ 4.78 µg/mL) each time.

In the case of `CC[C@H](C)[C@H](NC(=O)[C@H](CCCN=C(N)N)NC(=O)[C@H](CCCN=C(N)N)NC(=O)[C@H](CC(C)C)NC(=O)[C@H](CCCCN)NC(=O)[C@H](CCCCN)NC(=O)[C@H](Cc1c[nH]c2ccccc12)NC(=O)[C@H](CCCN=C(N)N)NC(=O)[C@H](CCCCN)NC(=O)[C@H](Cc1c[nH]c2ccccc12)NC(=O)[C@@H](N)Cc1c[nH]c2ccccc12)C(=O)N[C@@H](Cc1ccccc1)C(=O)N[C@@H](CC(C)C)C(=O)N[C@@H](CCSC)C(=O)N[C@@H](CC(C)C)C(=O)O` [WWKRWKKLRRIFLML], the MIC in experiment [21] and in [22] was 1.85 µM (≈ 4 µg/mL) each time.
